Measurements reported in patent US20110296540A1, “ASSAY FOR SCREENING ANTIDEPRESSANTS” (priority 2008, published 2011).

Legend:
[1] = test system: DCX+ immature granule cells; experiment: DCX immunohistochemistry: number, dendritic morphology and Sholl analysis of immature granule cells; format: in vivo, mice
Description: Immunohistochemistry and confocal imaging. Mice were anesthetized with ketamine/xylazine (100 and 7 mg/kg, respectively) and transcardially perfused (cold saline, followed by 4% cold paraformaldehyde in PBS). […] Immunohistochemistry was performed in the following steps: 2 h incubation in 1:1 formamide/2×SSC at 65° C., 5 min rinse in 2×SSC, 30 min incubation in 2N HCl at 37° C., and 10 min rinse in 0.1M boric acid, pH 8.5, 2 h incubation in 0.1M PBS with 0.3% Triton X-100, and 5% normal donkey serum. Sections were then incubated overnight at 4° C. in primary antibodies for doublecortin (goat; 1:500; Santa Cruz Biotechnology, Santa Cruz, Calif.), bromodeoxyuridine (BrdU; rat; 1:100; Serotec, Oxford, UK), and neuronal-specific nuclear protein (NeuN) (mouse; 1:500; Chemicon, Temecula, Calif.). Biotinylated or fluorescent secondary antibodies were used. All secondary antibodies were purchased from Jackson ImmunoResearch (West Grove, Pa.). DCX staining for Sholl analysis was done as follows: sections were rinsed in PBS, treated with 1% H2O2 in 1:1 PBS and methanol for 15 min to quench endogenous peroxidase activity (and to enhance dendritic staining), incubated in 10% normal donkey serum and 0.3% Triton X-100 for 30 min, and then incubated overnight at 4° C. in primary antibody for doublecortin. After secondary antibody incubation, sections were developed using Vector ABC kit and DAB kit. Bright-field images were taken with a Zeiss (Oberkochen, Germany) Axioplan-2 upright microscope. Stereological procedure was used to quantify labeled cells (Malberg et al., 2000 ? ). All cell counting for triple-stained sections were done using a Zeiss LSM 510 META confocal microscope.
Sholl analysis. DCX-positive (DCX^+) granule cells with tertiary, relatively untruncated dendritic branches or BrdU/DCX double-positive cells (one DCX^+ cell was traced for each […] hippocampal slice; n=10-12 cells per brain for DAB-stained sections; n=4-8 cells per brain for fluorescent staining, 5 mice per group) were traced using camera lucida at 40× magnification (Neurolucida; MicroBrightField, Williston, Vt.). Adult SvEvTac129 mice (16-20 weeks old) were used to obtain sparsely labeled DCX^+ cells. DCX immunohistochemistry was done to maximize the labeling of dendrites (see above methods). Sholl analysis for dendritic complexity was performed using the accompanying software (NeuroExplorer; MicroBrightField), calculating dendritic complexity including dendritic length and number of intersections (branch points). All samples were number coded, and analysis was done blind to treatment.
Next, the DCX^+ cells were subcategorized according to their dendritic morphology: (1) DCX^+ cells with no tertiary dendritic processes (FIG. 2A), and (2) DCX^+ cells with complex, tertiary dendrites (FIG. 2B). […] The results are mean±SEM of DCX^+ cells with tertiary branches.
Double fluorescent immunohistochemistry for BrdU and DCX were performed on hippocampal sections. BrdU cells that were also DCX' were identified and then Sholl analysis on the double-positive cells was performed (FIG. 3 D-G).

[2] = test system: MPP/DG synaptic connection; experiment: Field electrophysiological recordings on hippocampal slices (MPP/DG), sham or x-irradiated animals; format: in vivo, mice
Description: Electrophysiology. Brains were collected from animals after deep anesthesia with halothane and decapitation, and transverse hippocampal slices (400 μm) were prepared using a vibratome. […] Slices were allowed to equilibrate for 2 h before positioning the electrodes and beginning stimulation.
To record from the DG, the medial perforant path (MPP) was stimulated using a World Precision Instruments (Sarasota, Fla.) stimulation isolation unit and a bipolar tungsten electrode. Evoked potentials were recorded in the molecular layer above the upper blade of the DG using a glass capillary microelectrode filled with artificial CSF (tip resistance of 1-3 MΩ). […] Input-output curves were obtained after 10 min of stable recordings. […] After 15 min of stable baseline response to test stimulation (once every 20 s), the ability to elicit LTP was assessed. […] Responses were recorded every 20 for 60 min after LTP induction.

C57BL/6Ntac mice = experiment: Open Field paradigm, chronic corticosterone model; format: in vivo
Source text: The procedure described previously was used (Dulawa et al., 2004). Motor activity was quantified in four Plexiglas open field boxes 43 times 43 cm2 (MED Associates, Georgia, Vt.). Two sets of 16 pulse-modulated infrared photobeams were placed on opposite walls 2.5-cm apart to record x-y ambulatory movements. Activity chambers were computer interfaced for data sampling at 100-ms resolution. The computer defined grid lines that divided each Open Field into center and surround regions, with each of four lines being 11 cm from each wall. Dependent measures in the center were the total time and the number of entries over a 30-min period of test. The whole session was also divided in […] to analyze the time spent in the center every 5 min. The overall motor activity was quantified as the total distance traveled (cm) or distance traveled in the center divided by total distance traveled.
Mice were anesthetized with ketamine and xylazine (100 mg/ml ketamine; 20 mg/ml xylazine), placed in a stereotaxic frame and exposed to cranial irradiation using a Siemens Stabilopan X-ray system operated at 300 kVp and 20 mA. Animals were protected with a lead shield that covered the entire body, but left unshielded a 3.22×11-mm treatment field above the hippocampus (interaural 3.00 to 0.00) exposed to X-Ray. Dosimetry was done using a Capintec Model PR06G electrometer ionization chamber and Kodak Readypack Radiographic XV films. The corrected dose rate was approximately 1.8 Gy per min at a source to skin distance of 30 cm. The procedure lasted 2 min and 47 sec, delivering a total of 5 Gy. Three 5 Gy doses were delivered on days 1, 4 and 8.

## CNCCC(Oc1ccc(C(F)(F)F)cc1)c1ccccc1 (centres unmarked) [fluoxetine]
[1]; chronic (28 d)
  dendritic length of DCX+ cells (Sholl analysis): increased
  number of DCX+ cells with tertiary dendrites: significantly increased
  number of intersections of DCX+ cells (Sholl analysis): increased
[1]; three weeks of fluoxetine
  dendritic length in 3-week-old granule cells (BrdU/DCX double-positive): enhanced
  number of intersections in 3-week-old granule cells (BrdU/DCX double-positive): enhanced
[2]; chronic fluoxetine
  input-output functions in the MPP/DG: significantly increased
[2]; chronic fluoxetine, one-third of maximal response and 60 μA
  paired-pulse depression (50 ms interstimulus interval): suppressed
[2]; chronic fluoxetine, sham animals
  ACSF-LTP: enhanced
[2]; chronic fluoxetine, x-irradiated animals
  LTP: completely blocked
[2]; subchronic fluoxetine
  input-output functions in the MPP/DG: significantly increased
[2]; subchronic fluoxetine, both sham and x-irradiated animals
  ACSF-LTP: suppression
C57BL/6Ntac mice; 3-week antidepressant treatment in corticosterone-treated mice, imipramine 40, fluoxetine 18 mg/kg/day
  corticosterone-induced anxiety phenotype in the Open Field (time and entries in the center): reversed
C57BL/6Ntac mice; chronic corticosterone, with or without chronic fluoxetine
  ambulatory distance (Open Field): abolished
C57BL/6Ntac mice; chronic fluoxetine, regardless of X-irradiation
  corticosterone-induced decrease of Open Field center parameters: reversed
